Measurements taken from US20230270713A1, “Administration of Resiniferatoxin For Treatment of Bladder Pain or Bladder Cancer” (Sorrento Therapeutics, Inc., priority 2020, published 2023).
Entries after “also recorded” stand apart in the source; their conditions may differ.

Tested on: S1 and S2 DRG neurons expressing CGRP and SP
Assay: CGRP and SP positive neurons in S1 and S2 dorsal root ganglia of cats (IHC)
Format: in vivo, cat
Method: At day 14 the cats were anesthetized and perfused with saline followed by 10% formalin. After confirmation of successful euthanasia, lumbar and sacral segments of the spinal cord with corresponding dorsal spinal ganglia, the urinary bladder and urethra were harvested and tissues were prepared for immunohistochemistry.
Previous studies have shown that TRPV1-immunoreactive axons co-express Calcitonin gene-related peptide (CGRP) and substance P (SP) (See, e.g., Sharrad et al. (2015) Neurosci. Lett., 599: 164-171; Bae et al. (2004) J. Comp. Neurol. 478: 62-71). Since feline bladder connective tissue, smooth muscle, and cell bodies of S2 DRG express CGRP+ and SP+ axons, expression of CGRP and SP were used in these studies to identify the majority of TRPV1 axons innervating the cat bladder and TRPV1+ cell bodies in cat S2 dorsal root ganglia (DRG).
The percent of cell bodies from S1 and S2 DRG expressing SP and CGRP from feline bladders after intravesical application of either control (saline) or RTX (5, 25 or 50 mcg) was also examined using immunohistochemistry and confocal laser microscopy as described above. […] CGRP positive cell bodies were small to medium-size.

Structure (SMILES): C=C(C)[C@]12C[C@@H](C)[C@@]34O[C@](Cc5ccccc5)(O[C@@H]1[C@@H]3C=C(COC(=O)Cc1ccc(O)c(OC)c1)C[C@]1(O)C(=O)C(C)=C[C@@H]41)O2 [RTX, resiniferatoxin]
- number of neurons (cell bodies) expressing CGRP and SP in S2 DRG (cat, single 25 mcg intravesical, vs saline control): does not decrease; also recorded: did not modify
- percentage of CGRP+ neurons in S1 DRG and S2 DRG (cats, 5, 25 and 50 mcg, 14 days post treatment, vs control): did not affect
- percentage of cell bodies expressing CGRP and SP in S1 and S2 DRG (cats, 5, 25 or 50 mcg intravesical, vs control): did not affect
- percentage of SP+ neurons in S1 DRG and S2 DRG (cats, 14 days post-treatment): comparable to the control
